Laboratory results as given in patent US9381193B2, “Contraceptive methods and compositions” (WASHINGTON UNIVERSITY, priority 2011, dated 2016).

Assays:
[1] = tested on: ESC-T cells; test: EdU incorporation proliferation assay; type: cell-based, human
Source text: Other groups have shown that DHEA has anti-proliferative effects in a number of cell-lines and tissues. Thus, it was hypothesized that perhaps the PPP inhibitors prevent the proliferation of ESC-Ts and that this is an additional effect, independent of their role in decidualization inhibition. In a human uterus the stromal cells go through a cyclical oscillation between proliferation and differentiation, determined by the hormonal milieu. ESC-Ts in vitro remain in the proliferative state until they are exposed to differentiation media, which causes the cells to halt cell division and enter differentiation. Proliferation of ESC-T cells were monitored by EdU incorporation in vitro, which indicates entry into the S-phase of the cell cycle, in the absence of the differentiation hormones.
Following 60 hr of the treatment indicated in the experiment, EdU was added to the culture medium at a concentration of […]. Cells were harvested and stained using the Click-iT EdU Flow Cytometry Kit (Invitrogen). Quantitative data were collected using a BD FACSCalibur flow cytometer (Becton Dickinson, San Jose, Calif.) and analyzed with FlowJo software (TreeSTar, Inc., Ashland, Oreg.). For confocal microscopy, the cells were stained on coverslips using the same protocol. Nuclei were counterstained with TOPRO-iodide (Molecular probes) at a 1:500 dilution. Cells were mounted on slides using Vectashield (Vector Labs) and visualized using a Nikon C1 microscope.

[2] = tested on: FVB/NJ mice; test: Ovulation rate after PMSG and hCG in DHEA-fed mice; type: in vivo, mouse
Source text: (§1) Female FVB/NJ mice were obtained from Jackson Laboratories (Bar Harbor, Me., USA). Regular rodent chow was supplemented with DHEA at 0.01%, 0.1% and 0.6% w/w. Three-week-old mice had access to food and water ad libitum. Mice were fed control or DHEA-supplemented chow for two weeks. The Animal Studies Committee at Washington University School of Medicine reviewed and approved all animal experiments. Animals were maintained according to the Guide for the Care and Use of Laboratory Animals provided by the Institute for Laboratory Animal Research.
COCs were collected following superovulation with PMSG. Ovaries were removed and placed in M2 media (Sigma, St. Louis, Mo., USA). COCs were obtained by rupture of antral follicles with a syringe and needle. To collect denuded germinal vesicle (GV) oocytes, the cumulus cells were removed by gentle pipetting. The oviducts were removed from PMSG- and hCG-primed mice. The ampulla of the oviduct was punctured to release the clutch of ovulated oocytes 24 hr after hCG.

[3] = tested on: human primary ESCs; test: In vitro decidualization of human primary ESCs (decidualization marker mRNA); type: cell-based; details: 9 days in decidualization media
Source text: In order to confirm that this is not a side effect of ESC immortalization with telomerase overexpression in this human cell line, the effect of DHEA on decidualization of primary ESC cultures from mouse and human uteri was also investigated. Murine ESCs were isolated from the gravid uterus at 4 days post coitus and cultured in vitro for 3 days to induce decidualization as described in the Methods. […] The human primary ESCs were isolated from uteri following hysterectomy for benign disease as outlined in the Methods and cultured in decidualization media for 9 days.
Control samples received 0.1% ethanol vehicle control.

[4] = tested on: FVB/NJ mice; test: Artificially induced deciduoma in ovariectomized mice; type: in vivo, mouse
Protocol: (§2) This induced deciduoma model allowed the study of the effect of increased DHEA on implantation independently of embryo development and ovarian function. Female mice 6-8 weeks of age were ovariectomized and rested for 2 weeks. […] At day 2 before induction, the experimental mice also began receiving DHEA at 2 mg/100 g of body weight. The control mice received no DHEA. At day 0, one uterine horn in each animal was subjected to a physical stimulus, 100 μL sesame seed oil injection, to induce a deciduoma. The second horn was left as the unstimulated internal control for each mouse. Day 0 in this case is equivalent to the day of embryo implantation in a physiological mouse pregnancy, which is 4 days post coitus. Five days after the oil injection, uterine horns were dissected out. First the gross anatomies of the uteri were assessed. Representative tissues from two mice in each treatment group are shown (FIG. 7B). […] Protein was isolated from all uterine horns in order to measure the expression of a well-established decidualization protein marker, Bmp2. […] Bmp2 expression was almost undetectable in the unstimulated uterine horns. […] In the same line of experiments, the serum hormone levels were also measured to confirm that findings were strictly the result of increased levels of DHEA.
(§3) Decidualization in vivo under chronically elevated levels of DHEA was also tested. The ovariectomy mouse model described above was used with the following changes: DHEA was administered orally (0.6% supplementation in regular chow diet) starting on the day of ovariectomy. The mice were on the diet for 2 weeks prior to the beginning of the hormone regiments described in FIG. 7A. In FIG. 8A, representative uterine horns are shown from control mice (receiving regular chow) and the treatment mice on 0.6% DHEA diet. […] A quantitative analysis of the decidual reaction in shown in FIG. 8B, where the mass of the uterine horns is shown. Lastly, it should be noted that ovariectomised mice, similar to post-menopausal women, tend to have increased body fat percentage.
(§4) To generate deciduomas 7-8 wk-old female FVB/NJ mice were used and treated as described previously. A time line of the hormone administrations is presented in FIG. 7a, adapted from Herington et al. Briefly, mice were ovariectomized and allowed 2 weeks for recovery. They were then injected with 100 ng 17b-estradiol (E2) (Sigma) for three days, rested two days, and then injected with 10 ng E2/1 μg Progesterone (P4, Sigma) for three days. […] Immediately following the last of the above sensitization injections, the right uterine horn received an intra-luminal injection of 100 μL of sunflower seed oil. Mice continued to receive 1 μg P4 subcutaneously for up to 4 days. Mice receiving the DHEA treatment received […] starting on the day the E2/P4 injections were begun and continued for the 7 days following, until mice were sacrificed. On the day following the last injection, serum samples were collected, the mice were sacrificed and uterine horns dissected out. Serum DHEA, E2 and P4 levels were analyzed by ELISA assays (Alpco Immunoassays).

[5] = as above; type: in vivo, mouse; details: female, FVB/NJ, mouse, serum, subcutaneous, 2 mg/100 g of body weight; measured on day +5; DHEA-treated group; read-out: Serum DHEA levels
Protocol: as §2, §3, §4

[6] = tested on: FVB/NJ mice; test: Estrous cycles by vaginal smears in DHEA-fed mice; type: in vivo, mouse
Protocol: To determine the reversibility of DHEA, mice were fed the two higher DHEA diets that prevented normal estrous cycles for two weeks followed by regular rodent chow for two weeks. Estrous cycles and pregnancy rates were recorded.
as §1
Vaginal smears were performed daily starting at eight weeks of age, after puberty, and establishment of regular estrous cycles. Vaginal cells were collected in 10 μl of phosphate buffered saline (PBS) and evaluated for stage of estrous by one investigator by light microscopy.

C[C@]12CC[C@H](O)CC1=CC[C@@H]1[C@@H]2CC[C@]2(C)C(=O)CC[C@@H]12 [DHEA, dehydroepiandrosterone]
EdU-positive nuclei vs DMSO control ([1]; 100 μM DHEA, 50 μM 6AN): drastic decrease
Proliferation by EdU geometric mean fluorescence intensity (flow cytometry) ([1]; 4 independent experiments): decreases proliferation of ESC-Ts in a concentration dependent manner
Number of ovulated oocytes ([2]; 0.01% DHEA diet): 10.8±2.8
Number of ovulated oocytes ([2]; 0.1% DHEA diet): 15±1.9
Number of ovulated oocytes ([2]; 0.6% DHEA diet): 7.1±1.4
Expression of PRL and IGFBP1 [3]: decreased in a concentration dependent manner
Deciduoma formation under chronic DHEA ([4]; 0.6% DHEA in chow, oral, from day of ovariectomy): no difference between the stimulated and unstimulated uterine horns
Decrease in Bmp2 protein induction in deciduomas vs control mice (Western blot) ([4]; DHEA 2 mg/100 g of body weight): 3 fold
Decrease in the decidual response by uterine mass vs controls ([4]; DHEA 2 mg/100 g of body weight): ~3 fold
Morphology of uterine cross sections of stimulated horns ([4]; DHEA 2 mg/100 g of body weight): no decidual cells
Gross deciduoma formation along the stimulated uterine horn ([4]; DHEA 2 mg/100 g of body weight from day 2 before induction, 5 days after oil injection): weak, if any, deciduoma formation
concentration at 5 day (after oil injection on day 0) [5]: 32.6 ng/mL
Estrous cycle length ([6]; 0.01% DHEA diet, after two weeks): approximately five days longer than controls
Estrous cycle stage ([6]; 0.1% DHEA and 0.6% DHEA diet): remained in metestrus or diestrus for the entire evaluation period
